Row | melting point [°C] | SMILES
1 | 170 to 173 | CSCCCn1cc(C(=O)NCC(C)(C)C)c2ccc(Cl)c(Cl)c21
2 | 208 to 211 | CC(C)(C)CNC(=O)c1cn(CCCS(C)(=O)=O)c2c(Cl)c(Cl)ccc12
3 | 100 to 103 | CCC(C)(C)NC(=O)c1cn(CCCSC)c2c(Cl)c(Cl)ccc12

Reference: patent US7202268B2, “Derivatives of indole-3-carboxamide, preparation method thereof and application of same in therapeutics” (Sanofi-aventis, priority 2002, dated 2007)
